These results are taken from patent US7902254B1, “Method for treating conditions mediated by PPAR using macelignan” (Newtree Co., Ltd., priority 2005, dated 2011).

The test system of test [1] is obesity/diabetes mice (db/db mice). Description: Anti-diabetes effect in obesity/diabetes mouse model. It counts as in vivo. The following applies: 10 mg/kg oral; for OGTT blood sugar: 12th day. The text has this: A mouse (db/db mouse; The Jackson Laboratory, USA) used in the present invention as an obesity/diabetes model is deficient in leptin genes and cannot control its appetite, and thus takes an excessive amount of food continuously. […] Thus, it can be a typical model of obesity and metabolic diseases. Additionally, it has a higher blood sugar level and can be a typical model of non-insulin-dependent diabetes mellitus. To investigate the effect of preventing and treating diabetes of macelignan, seven mice of 10 week-aged obesity/diabetes mice (db/db mice) were used per test group. To the test groups, macelignan suspended in 0.25% carboxymethyl cellulose was orally administered with the dose of 5 mg/kg (body weight), 10 mg/kg (body weight) and 25 mg/kg (body weight), once per day at a predetermined time, for 14 days. As a control, 0.25% carboxymethyl cellulose was orally administered alone to normal mice in the same dose as administered to the test group. As another control, 0.25% carboxymethyl cellulose was orally administered alone to obesity/diabetes mice in the same dose as administered to the test group. As still another control, 10 mg/kg (body weight) of troglitazone was orally administered. Blood sugar levels of the obesity/diabetes mice were determined from six days before the administration, once per three days. On the 12th day after the oral administration, the test group and the controls were subjected to the Oral Glucose Tolerance Test (OGTT). For this test, obesity/diabetes mice in the test group and the controls were fasted for at least 18 hours, glucose was orally administered to the mice in a dose of 3 g/kg (body weight), and then variations in the blood sugar were measured at 0 minutes, 30 minutes, 60 minutes and 120 minutes after the glucose administration. Additionally, on the 14th day of the oral administration, the final blood sugar level, insulin content in blood (mouse insulin ELISA Kit, Linco Research, o. EZRMI-BK, USA) and adiponectin content in blood (Adiponectin Quantikine ELISA Kit, R&D systems, No. MRP300, USA) were analyzed.

Test [2] has the same test system. Description: Effect upon hyperlipidemia and cardiovascular diseases in obesity/diabetes mouse model. In kind it is in vivo. As to conditions: 10 mg/kg oral, 14 days. The protocol: To investigate effects of macelignan upon the treatment of hyperlipidemia and cardiovascular diseases, seven mice of 10 week-aged obesity/diabetes mice (db/db mice) were used per test group. To the test groups, macelignan suspended in 0.25% carboxymethyl cellulose was orally administered in an administration dose of 5 mg/kg (body weight), 10 mg/kg (body weight) and 25 mg/kg (body weight), once per day at a predetermined time, for 14 days. As a control, 0.25% carboxymethyl cellulose was orally administered alone to normal mice in the same dose as administered to the test group. As another control, 0.25% carboxymethyl cellulose was orally administered alone to obesity/diabetes mice in the same dose as administered to the test group. As still another control, 10 mg/kg (body weight) of troglitazone was orally administered. Fourteen days after the administration, triglyceride concentration in blood (triglyceride measuring kit, Wako, Japan), free fatty acid concentration in blood (free fatty acid measuring kit, Wako, Japan), total cholesterol content in blood (ASAN T-CHO-Lq Reagents, Asan Pharmaceutical Co. Ltd., Korea), HDL-cholesterol content in blood (ASAN HDL-Cholesterol, Asan Pharmaceutical Co. Ltd., Korea), IL-6 content in blood (IL-6 Quantikine ELISA, R&D systems, USA) and TNF-α content in blood were measured for the test groups and the controls.

Test [3] deals with T1, human PPARα (Homo sapiens, UniProt Q07869).
T1 construct: expressed in transfected cells; host or cells: COS-7 monkey kidney cells (ATCC CRL-1651)
T1 sequence (Q07869 192-468 limits assumed): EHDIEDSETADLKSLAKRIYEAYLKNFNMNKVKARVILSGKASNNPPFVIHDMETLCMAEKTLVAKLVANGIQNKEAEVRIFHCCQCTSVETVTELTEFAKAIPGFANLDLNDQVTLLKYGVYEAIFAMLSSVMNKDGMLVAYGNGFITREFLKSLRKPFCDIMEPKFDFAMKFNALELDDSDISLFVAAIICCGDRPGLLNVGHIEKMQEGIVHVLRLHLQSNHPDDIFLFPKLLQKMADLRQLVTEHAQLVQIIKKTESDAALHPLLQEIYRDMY
Nature of the test: PPARα activation, PPRE-controlled luciferase reporter in transfected COS-7 cells. As to conditions: 25 μM, 24 hours, control 0.01% DMSO. In kind it is cell-based. Here is the method:
To investigate whether macelignan acts as a ligand of PPAR or not, it was tested according to known method (Cell, 68: 879-887, 1992; J. Biol. Chem., 272: 25252-25259, 1997) using a plasmid expressing PPAR and a vector having PPRE-controlled luciferase genes.
Activation of luciferase expression was measured by transfecting COS-7 monkey kidney cells (ATCC CRL-1651) with the PPARα plasmid and pFR-luciferase vector (Stratagene, USA), and then by treating the transfected cells with macelignan isolated from Example 1 for 24 hours. The PPARα plasmid was obtained by isolating polynucleotide encoding the amino acid sequence of amino acids […] (i.e. PPARα ligand-bound domain of the total amino acid sequence of human PPARα (Genbank Acession No. S74349)) with the primers of SEQ ID NO: 1 ([…]) and SEQ ID NO: 2 (TGGGGTACCTGGCTGAT) by RT-PCR. Then, the polynucleotide was cloned between the restriction enzyme sites of BamHI and KpnI of pFA vector (Stratagene, USA). Herein, mRNA used as the template in RT-PCR was obtained by separating the total RNA in cultured Hep G2 (ATCC HB-8065) human liver cells by using TRIZOL (Invitrogen, USA). RT-PCR was performed by synthesizing cDNA using reverse transcriptase at 42° C. for 60 minutes, and 30 cycles of 1 minute at 95° C., 30 seconds at 54° C. and 2 minutes at 72° C. using Taq polymerase. At this time, the test groups treated with different concentrations (1, 5, 10 and 25 μM) of macelignan according to the present invention were compared to the control treated with 0.01% DMSO, and to the groups treated with different concentrations (1, 5, 10 and 25 μM) of Wy-14643 (Sigma, USA), a compound known as a PPARα ligand.
(In general: A reporter such as luciferase makes a cellular process visible.)

`Cc1c(C)c2c(c(C)c1O)CCC(C)(COc1ccc(CC3SC(=O)NC3=O)cc1)O2` (stereo not shown) [troglitazone, reference compound] returned an OGTT blood sugar in test [1] (0 min. after glucose 3 g/kg) of 303.43 ± 37.83 mg/dL. Moreover, in test [1] (14th day, db/db mice), the “Adiponectin concentration in blood” value worked out at 6682.33 ± 250.05 ng/mL and the “Insulin concentration in blood” value was found to be 18.57 ± 5.88 ng/mL. In test [1] (30 mins. after glucose 3 g/kg), this compound showed an OGTT blood sugar of 610.57 ± 76.21 mg/dL. This compound also had an OGTT blood sugar in test [1] (60 mins. after glucose 3 g/kg) of 523.70 ± 17.10 mg/dL. In test [1] (120 mins. after glucose 3 g/kg), this compound had an OGTT blood sugar of 456.41 ± 54.69 mg/dL. Also, in test [2], the “Free fatty acid in blood” value was determined as 1.22 ± 0.27 mEq/l, the HDL-cholesterol in blood is 43.9 ± 6.34 mg/dL, the IL-6 in blood was 10.24 ± 3.60 pg/mL and the TNF-α in blood was 30.49 ± 13.18 pg/mL. In test [2], this compound came in with a Total cholesterol in blood of 134 ± 34.9 mg/dL and a Triglyceride in blood of 112.57 ± 57.47 mg/dL.

For `Cc1cccc(Nc2cc(Cl)nc(SCC(=O)O)n2)c1C` [Wy-14643, reference compound], the “luciferase activity higher than the control (PPARα)” value in test [3] was “about 16 times”.
